Reference: publication PMC9962735, “Synthesis and Cytotoxic Activity of the Derivatives of N-(Purin-6-yl)aminopolymethylene Carboxylic Acids and Related Compounds” (Molecules, 2023)

Experiments:
[1] = tested on: A549, SK-BR-3, SNU-1, Jurkat, WI-38 cell lines; experiment: MTT cytotoxicity assay, cell line panel (result in words); format: cell-based, human; conditions: 72 h
Excerpt: (§1) The cytotoxicity of the test compounds was studied using the MTT assay against a number of cell lines: CT-26 murine colon carcinoma, 4T1 murine mammary carcinoma, MDA-MB-231 human breast adenocarcinoma, COLO201 human colorectal adenocarcinoma, HepG2 human hepatocellular carcinoma, A549 human non-small-cell lung carcinoma, SK-BR-3 human breast adenocarcinoma, SNU-1 human gastric carcinoma, Jurkat human acute T-lymphoblastic leukemia, and WI-38 human lung fibroblasts (normal cells). Doxorubicin (Dox) was used as a reference drug. Cells were incubated with test compounds for 72 h.
The cytotoxicity of compounds 2a–c, 6, 7, and 9 was also studied using the MTT assay against a number of tumor cell lines: A549, SK-BR-3, SNU-1, Jurkat, as well as normal fibroblasts WI-38 (Table 3).
(§2) Cells were seeded in flat-bottomed 96-well plates at 10,000 cells per well (for A549, SNU-1, WI-38, CT-26, MDA-MB-231, 4T1, and HepG2 cells) or 20,000 cells per well (for SK-BR-3, Jurkat, and COLO201 cells) and cultivated in complete culture mediums (for composition of each medium, see the Supplementary Materials, Table S1) in a CO2 incubator at 37 °C. At the first stage of this study, the test compounds dissolved in DMSO were added to the wells with cells at final concentrations from 1 × 10^–4 to 1 × 10^–10 mol/L (A549, SK-BR-3, SNU-1, Jurkat, and WI-38) or 1 × 10^–3 to 1 × 10^–8 mol/L (CT-26, MDA-MB-231, 4T1, COLO201, and HepG2); DMSO concentration in the wells was finally 1%. A complete cultural medium and DMSO were added to the control wells at the same concentration as in the experimental wells; 0.1% Triton X-100 solution (10 µL) was added to the corresponding wells as a non-specific positive control. After adding the test compounds, the cells were incubated for 72 h in an atmosphere containing 5% CO2. After that, the nutrient medium was removed from each well (in the case of SK-BR-3, Jurkat, and COLO201, plates were pre-centrifuged at 1500 rpm for 6 min). A solution of the commercial anticancer agent Doxorubicin (Dox, Sigma-Aldrich, St. Louis, MO, USA) in DMSO was used as a reference drug. Then, 150 µL of a complete medium with the MTT reagent (PanEco, Moscow, Russia) at a concentration of 0.5 mg/mL was added and incubated for 2 h. Formazan crystals were dissolved in DMSO (200 µL) and the absorbance in the wells was measured at 540 nm and a reference wavelength of 650 nm (Sunrise, Tecan, Groding, Austria). Experiments were performed in three parallel runs. Cell viability after incubation in the presence of test compounds was calculated in relation to cell viability in the control wells according to the Formula (1):Cell viability (%) = (Aexp/Ac) × 100,(1) where Aexp is the optical density of solutions in the wells containing test compounds; Ac is the optical density of solutions in control wells without test compounds. For detailed information on cell viability of various cell lines, see the Supplementary Materials, Figures S21–S26.
(§3) At the second stage of this study, in order to more accurately calculate the CC50 (the half maximal inhibitory concentration), the cytotoxic effect of test compounds was evaluated at concentrations close to CC50 found at the first stage. The study of the cytotoxic activity of each substance towards the cells of each line was carried out in triplicate; the mean value was used to calculate CC50. The CC50 values were determined by non-linear regression analysis using Graph-Pad Prism7.

[2] = tested on: SK-BR-3 human breast adenocarcinoma; experiment: MTT cytotoxicity assay, SK-BR-3; format: cell-based; conditions: Homo sapiens; for CC50: SK-BR-3, 72 h, SK-BR-3, 72 h incubation, MTT
Excerpt: as §1, §2, §3

[3] = MTT cytotoxicity assay, SK-BR-3; format: cell-based, human; conditions: human, read-out: SCI (selective cytotoxicity index)
Excerpt: as §1, §2, §3

[4] = MTT cytotoxicity assay, WI-38 normal cells; format: cell-based; conditions: human, WI-38 lung fibroblasts (normal cells); for CC50 at 72 h: WI-38, 72 h incubation, MTT
Excerpt: as §1, §2, §3

[5] = tested on: SNU-1 human gastric carcinoma; experiment: MTT cytotoxicity assay, SNU-1; format: cell-based; conditions: Homo sapiens; for CC50: SNU1, 72 h, SNU-1, 72 h incubation, MTT
Excerpt: as §1, §2, §3

[6] = MTT cytotoxicity assay, SNU-1; format: cell-based, human; conditions: human, read-out: SCI (selective cytotoxicity index)
Excerpt: as §1, §2, §3

[7] = tested on: Jurkat human acute T-lymphoblastic leukemia; experiment: MTT cytotoxicity assay, Jurkat; format: cell-based; conditions: Homo sapiens, Jurkat; for CC50: 72 h, 72 h incubation, MTT
Excerpt: as §1, §2, §3

[8] = MTT cytotoxicity assay, Jurkat; format: cell-based, human; conditions: human, read-out: SCI (selective cytotoxicity index)
Excerpt: as §1, §2, §3

[9] = Solubility in aqueous media; format: physicochemical; conditions: result in words
[10] = tested on: A549 human non-small-cell lung carcinoma; experiment: MTT cytotoxicity assay, A549; format: cell-based; conditions: Homo sapiens; for CC50: A549, 72 h, A549, 72 h incubation, MTT
Excerpt: as §1, §2, §3

[11] = MTT cytotoxicity assay, A549; format: cell-based, human; conditions: human, read-out: SCI (selective cytotoxicity index)
Excerpt: as §1, §2, §3

[12] = tested on: 4T1 murine mammary carcinoma; experiment: MTT cytotoxicity assay, 4T1; format: cell-based; conditions: Mus musculus; for CC50: 4T1, 72 h incubation, MTT, n = 3
Excerpt: as §1, §2, §3

[13] = MTT cytotoxicity assay, 4T1; format: cell-based, murine; conditions: mouse (4T1) and human (WI-38); CC50 of WI-38 divided by CC50 of 4T1; read-out: SCI (selective cytotoxicity index)
Excerpt: as §1, §2, §3

[14] = MTT cytotoxicity assay, CT-26; format: cell-based, murine; conditions: mouse (CT-26) and human (WI-38); CC50 of WI-38 divided by CC50 of CT-26; read-out: SCI (selective cytotoxicity index)
Excerpt: as §1, §2, §3

[15] = tested on: CT-26 murine colon carcinoma; experiment: MTT cytotoxicity assay, CT-26; format: cell-based; conditions: Mus musculus, CT26; for CC50: CT-26, 72 h incubation, MTT, n = 3
Excerpt: as §1, §2, §3

[16] = tested on: COLO201 human colorectal adenocarcinoma; experiment: MTT cytotoxicity assay, COLO201; format: cell-based; conditions: Homo sapiens, COLO 201; for CC50: COLO201, 72 h incubation, MTT, n = 3
Excerpt: as §1, §2, §3

[17] = MTT cytotoxicity assay, COLO201; format: cell-based, human; conditions: human; CC50 of WI-38 divided by CC50 of COLO201; read-out: SCI (selective cytotoxicity index)
Excerpt: as §1, §2, §3

[18] = tested on: HepG2 human hepatocellular carcinoma; experiment: MTT cytotoxicity assay, HepG2; format: cell-based; conditions: Homo sapiens; for CC50: HepG2, 72 h incubation, MTT, n = 3
Excerpt: as §1, §2, §3

[19] = MTT cytotoxicity assay, HepG2; format: cell-based, human; conditions: human; CC50 of WI-38 divided by CC50 of HepG2; read-out: SCI (selective cytotoxicity index)
Excerpt: as §1, §2, §3

[20] = tested on: MDA-MB-231 human breast adenocarcinoma; experiment: MTT cytotoxicity assay, MDA-MB-231; format: cell-based; conditions: Homo sapiens; for CC50: MDA-MB-231, 72 h incubation, MTT, n = 3
Excerpt: as §1, §2, §3

[21] = MTT cytotoxicity assay, MDA-MB-231; format: cell-based, human; conditions: human; CC50 of WI-38 divided by CC50 of MDA-MB-231; read-out: SCI (selective cytotoxicity index)
Excerpt: as §1, §2, §3

[22] = tested on: herpes simplex virus type 1 (HSV-1), including acyclovir-resistant HSV-1 strain; design: method as in doi:10.1002/ejoc.201900727, doi:10.1515/pac-2019-1214, doi:10.1007/s10593-021-02929-z; conditions: HSV-1 including acyclovir-resistant strain; cited from earlier work
[23] = CC50 of WI-38 divided by CC50 of SK-BR-3 (Table 3)
[24] = CC50 of WI-38 divided by CC50 of SNU-1 (Table 3)
[25] = CC50 of WI-38 divided by CC50 of Jurkat (Table 3)
[26] = CC50 of WI-38 divided by CC50 of A549 (Table 3)
[27] = CC50 of WI-38 divided by CC50 of SK-BR-3 (Table 1)
[28] = CC50 of WI-38 divided by CC50 of SNU-1 (Table 1)
[29] = CC50 of WI-38 divided by CC50 of Jurkat (Table 1)
[30] = CC50 of WI-38 divided by CC50 of A549 (Table 1)

Row | SMILES | cytotoxic activity (in words) [1] | CC50 ([2]; n = 3 (Table 3)) [µM] | selectivity ratio at 72 h [3, 23] | CC50 at 72 h ([4]; n = 3 (Table 3)) [µM] | CC50 ([5]; n = 3 (Table 3)) [µM] | selectivity ratio at 72 h [6, 24] | CC50 ([7]; n = 3 (Table 3)) [µM] | selectivity ratio at 72 h [8, 25] | CC50 ([10]; n = 3 (Table 3)) [µM] | selectivity ratio at 72 h [11, 26] | CC50 [12] [nM] | selectivity ratio at 72 h [13] | selectivity ratio at 72 h [14] | CC50 [15] [µM] | CC50 ([2]; n = 3 (Table 1)) [µM] | selectivity ratio at 72 h [3, 27] | CC50 [16] [nM] | selectivity ratio at 72 h [17] | CC50 at 72 h ([4]; n = 3) [µM] | CC50 [18] [µM] | also measured
1 | CC1COc2c(ccc(F)c2F)N1C(=O)CCCCCCCCCCNc1ncnc2c1ncn2COCCO (stereo not shown) [Compound 7, 4-{11-[9-(2-Hydroxyethoxy)methylpurin-6-yl]aminoundecanoyl}-7,8-difluoro-3,4-dihydro-3-methyl-2H-[1,4]benzoxazine] | approximately the same cytotoxicity as the most active compound 1d | 42 | 0.33 | 14 | 3.7 | 3.8 | 7.3 | 1.9 | 9.4 | 1.5 | – | – | – | – | – | – | – | – | – | – | solubility in aqueous media [9]: not possible to achieve a significant increase in the solubility
2 | CC1COc2c(ccc(F)c2F)N1C(=O)CCCCCCCCCCCNc1ncnc2[nH]cnc12 (stereo not shown) [Compound 1e] | – | – | – | – | – | – | – | – | – | – | 490 | 145 | 21 | 3.4 | 85 | 0.83 | 3500 | 20 | 71 | 5.2 | viability at 100 µM ([12]; 4T1, 1 × 10^–4 M, mean ± SD (n = 3), read-out: Cell viability): 2 ± 2%; viability at 100 µM ([15]; CT-26, 1 × 10^–4 M, mean ± SD (n = 3), read-out: Cell viability): 3 ± 2%; viability at 100 µM ([2]; SK-BR-3, 1 × 10^–4 M, mean ± SD (n = 3), read-out: Cell viability): 9 ± 2%; viability at 100 µM ([16]; COLO201, 1 × 10^–4 M, mean ± SD (n = 3), read-out: Cell viability): 2 ± 1%; viability at 72 h ([4]; WI-38, 1 × 10^–4 M, mean ± SD (n = 3), read-out: Cell viability): 22 ± 7%; viability at 100 µM ([18]; HepG2, 1 × 10^–4 M, mean ± SD (n = 3), read-out: Cell viability): 2 ± 1%; selectivity ratio at 72 h [19]: 14; CC50 ([5]; n = 3 (Table 1)): 6 µM; viability at 100 µM ([5]; SNU1, SNU-1, 1 × 10^–4 M, mean ± SD (n = 3), read-out: Cell viability): 5 ± 1%; selectivity ratio at 72 h [6, 28]: 12; CC50 ([7]; n = 3 (Table 1)): 4 µM; viability at 100 µM ([7]; 1 × 10^–4 M, mean ± SD (n = 3), read-out: Cell viability): 10 ± 4%; selectivity ratio at 72 h [8, 29]: 18; CC50 ([10]; n = 3 (Table 1)): 75 µM; viability at 100 µM ([10]; A549, 1 × 10^–4 M, mean ± SD (n = 3)): 6%; selectivity ratio at 72 h [11, 30]: 0.95; viability at 100 µM ([20]; MDA-MB-231, 1 × 10^–4 M, mean ± SD (n = 3), read-out: Cell viability): 7 ± 5%; CC50 [20]: 12 µM; selectivity ratio at 72 h [21]: 5.9
3 | CC1COc2c(ccc(F)c2F)N1C(=O)CCCCCCCCCCCCCCNc1ncnc2[nH]cnc12 (stereo not shown) [Compound 1f] | – | – | – | – | – | – | – | – | – | – | 2300 | 15 | 12 | 3 | 99 | 0.35 | 1300 | 27 | 35 | 9.7 | selectivity ratio at 72 h [19]: 3.6; CC50 ([5]; n = 3 (Table 1)): 6 µM; selectivity ratio at 72 h [6, 28]: 5.8; CC50 ([7]; n = 3 (Table 1)): 32 µM; selectivity ratio at 72 h [8, 29]: 1.1; CC50 ([10]; n = 3 (Table 1)): 60 µM; selectivity ratio at 72 h [11, 30]: 0.58; CC50 [20]: 28 µM; selectivity ratio at 72 h [21]: 1.4
4 | CC1COc2c(ccc(F)c2F)N1C(=O)CCCCCNc1ncnc2[nH]cnc12 (stereo not shown) [Compound 1b] | showed cytotoxic activity | > 100 | ≤ 0.98 | 98 | 20 | 4.9 | 67 | 1.5 | 53 | 1.8 | – | – | – | – | – | – | – | – | – | – | antiviral activity in vitro against HSV-1 [22]: high antiviral activity
